The record followed here is patent publication US20200055883A1, “CYCLIC DI-NUCLEOTIDES DERIVATIVE FOR THE TREATMENT OF CANCER” (Eisai R&D Management Co., Ltd., priority 2017, published 2020).

Where two headings read alike, the source gives them in different places.

For experiment [1], the target named is Human STING HAQ (Homo sapiens, UniProt Q86WV6, G230A/H232R/R293Q/R71H). Description: HAQ STING agonist activity reporter assay (THP1-Dual cells).
Experiment [2] addresses REF Human STING (Homo sapiens, UniProt Q86WV6). Description: STING variant specific reporter assay, REF-STING (THP1-Dual KO-STING cells).
Experiment [3] concerns the target WT Human STING (Homo sapiens, UniProt Q86WV6, H232R). Description: STING variant specific reporter assay, WT-STING (THP1-Dual KO-STING cells). As to conditions: Human STING EC50 (μM) WT, ammonium salt form of each compound.
The target in experiment [4] is AQ Human STING (Homo sapiens, UniProt Q86WV6, G230A/H232R/R293Q). The experiment in a line: STING variant specific reporter assay, AQ-STING (THP1-Dual KO-STING cells). To be noted: ammonium salt form of each compound.
AQ Human STING, sequence (Q86WV6 whole entry G230A/H232R/R293Q): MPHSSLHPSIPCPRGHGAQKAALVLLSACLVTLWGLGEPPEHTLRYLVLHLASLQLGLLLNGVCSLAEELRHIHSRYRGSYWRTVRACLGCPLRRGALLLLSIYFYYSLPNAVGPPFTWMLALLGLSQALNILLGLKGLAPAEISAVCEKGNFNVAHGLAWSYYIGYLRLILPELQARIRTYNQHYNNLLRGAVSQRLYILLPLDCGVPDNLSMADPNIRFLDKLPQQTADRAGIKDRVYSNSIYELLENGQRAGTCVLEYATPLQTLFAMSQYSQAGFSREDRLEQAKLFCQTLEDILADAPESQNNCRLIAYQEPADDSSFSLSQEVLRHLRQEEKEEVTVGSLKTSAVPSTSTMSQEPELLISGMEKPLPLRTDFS
[5] abbreviates: hSTING EC50 (μM) HAQ, Table 8, ammonium salt form of each compound.
Where [6] appears, read: hSTING EC50 (μM) HAQ, Table 6, ammonium salt form, except Compounds 26, 33, 34 tested as bis-TEA salts.
The mark [7] stands for this setting: Human STING EC50 (μM) HAQ, Table 4, ammonium salt form of each compound, 20 hrs.
[8] abbreviates: Human STING EC50 (μM) HAQ, Table 5, ammonium salt form of each compound, 20 hrs.
Setting [9] is: Human STING EC50 (μM) AQ, Table 4.
The mark [10] stands for this setting: Human STING EC50 (μM) AQ, Table 5.

WT Human STING, sequence (Q86WV6 whole entry H232R): as the sequence (Q86WV6 whole entry G230A/H232R/R293Q) above, with A230G, Q293R counted along it
REF Human STING, sequence (Q86WV6 whole entry): as the sequence (Q86WV6 whole entry G230A/H232R/R293Q) above, with A230G, R232H, Q293R counted along it
Human STING HAQ, sequence (Q86WV6 whole entry R71H/G230A/H232R/R293Q): as the sequence (Q86WV6 whole entry G230A/H232R/R293Q) above, with R71H counted along it

With `O=[P@]1(S)N[C@@H]2[C@H]3CO[P@](=O)(S)N[C@H]4[C@@H](O)[C@@H](O[C@@H]4CO1)n1cnc4c(ncnc41)NC/C=C/CNc1ncnc4c1ncn4C(O3)[C@@H]2O` [Compound 38], the EC50 in experiment [1] (setting [5]) worked out at 79.9 µM.

Molecule `O=P1(O)OC[C@H]2OC3[C@H](F)[C@@H]2O[P@@](O)(=S)OC[C@H]2O[C@H]([C@H](F)[C@@H]2O1)n1cnc2c(ncnc21)NC/C=C/CNc1ncnc2c1ncn23` [Compound 27] registered a half-maximal effective concentration (EC50) in experiment [1] (hSTING EC50 (μM) HAQ) of 9.8 µM.

`Nc1nc2c3ncn(c3n1)[C@@H]1O[C@@H]3COP(O)(=S)O[C@H]4[C@@H](F)[C@@H](O[C@@H]4COP(O)(=S)O[C@H]3[C@H]1F)n1cnc3c(ncnc31)NC/C=C/CO2` (single isomer, unassigned) [Compound 21] gave an EC50 in experiment [1] (hSTING EC50 (μM) HAQ) of 83.3 µM.

Take `O=[P@]1(S)OC[C@H]2OC3[C@H](F)[C@@H]2O[P@](=O)(S)OC[C@H]2O[C@H]([C@H](F)[C@@H]2O1)n1cnc2c(ncnc21)NCC1NC1CNc1ncnc2c1ncn23` (single isomer, unassigned) [Compound 36]: in experiment [1] (setting [6]), the EC50 was 31.4 µM.

For the molecule `O=[P@@]1(S)OC[C@H]2OC3[C@H](O)[C@@H]2O[P@](=O)(S)OC[C@H]2O[C@H]([C@H](O1)[C@@H]2O)n1cnc2c(ncnc21)NC/C=C/CNc1ncnc2c1ncn23` [Compound 14], the EC50 in experiment [2] (read-out: Human STING EC50 (μM) REF, Table 4, ammonium salt form of each compound) was above 100 µM; in experiment [3] (Table 4), 69.8 µM; in experiment [1] (setting [7]) it was 58.2 µM; in experiment [4] (read-out: Human STING EC50 (μM) AQ, Table 4), above 100 µM.

For `O=P1(S)OC[C@H]2O[C@@H]3[C@H](F)[C@@H]2OP(=O)(S)OC[C@H]2OC([C@H](F)[C@@H]2O1)n1cnc2c(ncnc21)NCC/C=C/CNc1ncnc2c1ncn23` (single isomer, unassigned) [Compound 12], the EC50 in experiment [1] (setting [8]) was found to be 8.2 µM.

As for `O=P1(O)OC[C@H]2OC3[C@H](F)[C@@H]2O[P@](O)(=S)OC[C@H]2O[C@H]([C@H](F)[C@@H]2O1)n1cnc2c(ncnc21)NC/C=C/CNc1ncnc2c1ncn23` [Compound 28], in experiment [1] (hSTING EC50 (μM) HAQ), the EC50 amounted to 10.2 µM.

For the molecule `O=[P@@]1(S)OC[C@H]2O[C@@H]3[C@H](F)[C@@H]2O[P@](=O)(S)OC[C@H]2OC([C@H](F)[C@@H]2O1)n1cnc2c(ncnc21)OC/C=C/COc1ncnc2c1ncn23` [Compound 26], the half-maximal effective concentration (EC50) in experiment [1] (setting [6]) worked out at 2.3 µM.

As to `O=[P@]1(S)OC[C@H]2OC3[C@H](F)[C@@H]2O[P@](=O)(S)OC[C@H]2O[C@H]([C@H](F)[C@@H]2O1)n1cnc2c(ncnc21)CC/C=C/CCc1ncnc2c1ncn23` [Compound 33], the half-maximal effective concentration (EC50) in experiment [1] (setting [6]) is 21.5 µM.

As for `O=[P@]1(S)OC[C@H]2OC3[C@H](F)[C@@H]2O[P@](=O)(S)OC[C@H]2O[C@H]([C@H](F)[C@@H]2O1)n1cnc2c(ncnc21)NC[C@H](O)[C@@H](O)CNc1ncnc2c1ncn23` [Compound 32], the EC50 was above 100 µM in experiment [2] (read-out: hSTING EC50 (μM) REF, Table 6, ammonium salt form, except Compounds 26, 33, 34 tested as bis-TEA salts) and 15.7 µM in experiment [1] (setting [6]).

Take `O=[P@]1(S)OC[C@H]2OC3[C@H](O)[C@@H]2O[P@](=O)(S)OC[C@H]2O[C@H]([C@H](O1)[C@@H]2O)n1cnc2c(ncnc21)NC/C=C/CNc1ncnc2c1ncn23` [Compound 13]: the EC50 in experiment [1] (setting [7]) was determined as 26.7 µM.

With `O=[P@@]1(S)OC[C@H]2OC3[C@H](F)[C@@H]2O[P@](=O)(S)OC[C@H]2O[C@H]([C@H](O1)[C@@H]2O)n1cnc2c(ncnc21)NC/C=C/CNc1ncnc2c1ncn23` [Compound 16], the EC50 in experiment [2] came out at 66.7 µM; in experiment [3] (Table 4), 25.7 µM; in experiment [1] (setting [7]), 28.8 µM; in experiment [4] (setting [9]), 20.4 µM.

Turning to `O=P1(S)OC[C@H]2O[C@@H]3[C@H](F)[C@@H]2OP(=O)(S)OC[C@H]2OC([C@H](F)[C@@H]2O1)n1cnc2c(ncnc21)NCC/C=C/CNc1ncnc2c1ncn23` (single isomer, unassigned) [Compound 37], the EC50 in experiment [3] (Table 5) was above 100 µM; in experiment [1] (setting [8]) it was 87.2 µM; in experiment [4] (setting [10]), 82.2 µM.

In the case of `O=P1(O)OC[C@H]2O[C@@H]3[C@H](F)[C@@H]2OP(=O)(O)OC[C@H]2OC([C@H](F)[C@@H]2O1)n1cnc2c(ncnc21)NC/C=C/CNc1ncnc2c1ncn23` [Compound 9], the EC50 in experiment [2] was found to be 31.7 µM; in experiment [3] (Table 5), 18 µM; in experiment [1] (setting [8]) it was 39.2 µM; in experiment [4] (setting [10]), 30.9 µM.

In experiment [1] (hSTING EC50 (μM) HAQ), `Nc1nc2c3ncn(c3n1)[C@@H]1O[C@@H]3COP(O)(=S)O[C@H]4[C@@H](F)[C@@H](O[C@@H]4COP(O)(=S)O[C@H]3[C@H]1F)n1cnc3c(ncnc31)NC/C=C/CO2` (stereo partly shown) [Compound 23] had an EC50 of 62.3 µM.

`O=[P@]1(S)OC[C@H]2OC3[C@H](F)[C@@H]2O[P@](=O)(S)OC[C@H]2O[C@H]([C@H](F)[C@@H]2O1)n1cnc2c(ncnc21)NCC1NC1CNc1ncnc2c1ncn23` (single isomer, unassigned) [Compound 35]: the half-maximal effective concentration (EC50) in experiment [1] (setting [6]) stood at 44.5 µM.

Regarding `O=P1(S)OC[C@H]2OC3[C@H](OP(=O)(S)OC[C@H]4O[C@H]([C@H](O1)[C@@H]4O)n1cnc4c(ncnc41)NC/C=C/CNc1ncnc4c1ncn43)[C@@H]2O` (stereo partly shown) [Compound 31], the concentration for a half-maximal effect (EC50) in experiment [1] (hSTING EC50 (μM) HAQ, Table 7, ammonium salt form of each compound) was 20.2 µM.

Take `O=P1(S)N[C@@H]2[C@H]3COP(=O)(S)N[C@H]4[C@@H](O)[C@@H](O[C@@H]4CO1)n1cnc4c(ncnc41)NC/C=C/CNc1ncnc4c1ncn4C(O3)[C@@H]2O` (stereo partly shown) [Compound 39]: the 50% effective concentration (EC50) in experiment [1] (setting [5]) amounted to 29.6 µM.

With `O=[P@]1(S)OC[C@H]2OC3[C@H](F)[C@@H]2O[P@](=O)(S)OC[C@H]2O[C@H]([C@H](O1)[C@@H]2O)n1cnc2c(ncnc21)NC/C=C/CNc1ncnc2c1ncn23` [Compound 15], the concentration giving a half-maximal response (EC50) in experiment [2] was determined as 66.7 µM; in experiment [3] (Table 4) it was 11.6 µM; in experiment [1] (setting [7]), 24.7 µM; in experiment [4] (setting [9]), 13.1 µM.

On to `O=P1(S)OC[C@H]2O[C@@H]3[C@H](F)[C@@H]2OP(=O)(S)OC[C@H]2OC([C@H](F)[C@@H]2O1)n1cnc2c(ncnc21)NCC/C=C/CNc1ncnc2c1ncn23` (single isomer, unassigned) [Compound 11], for which the EC50 in experiment [1] (setting [8]) came out at 6.8 µM.

`O=P1(S)OC[C@H]2O[C@@H]3[C@H](F)[C@@H]2OP(=O)(S)OC[C@H]2OC([C@H](F)[C@@H]2O1)n1cnc2c(ncnc21)NCC/C=C/CNc1ncnc2c1ncn23` (single isomer, unassigned) [Compound 8]: the EC50 in experiment [2] was above 100 µM; in experiment [3] (Table 5), 68.7 µM; in experiment [1] (setting [8]), 69.7 µM; in experiment [4] (setting [10]) it was 81 µM.

Turning to `O=P1(S)OC[C@H]2O[C@@H]3[C@H](F)[C@@H]2OP(=O)(S)OC[C@H]2O[C@H]([C@H](F)[C@@H]2O1)n1cnc2c(ncnc21)NC/C=C/COc1ncnc2c1ncn23` (single isomer, unassigned) [Compound 18], the 50% effective concentration (EC50) in experiment [1] (setting [6]) turned out to be 2.3 µM.

As for `O=P1(S)OC[C@H]2O[C@@H]3[C@H](F)[C@@H]2OP(=O)(S)OC[C@H]2O[C@H]([C@H](F)[C@@H]2O1)n1cnc2c(ncnc21)NC/C=C/COc1ncnc2c1ncn23` (single isomer, unassigned) [Compound 20], the EC50 in experiment [1] (setting [6]) came to 2.8 µM.

For the molecule `O=[P@]1(S)OC[C@H]2OC3[C@H](F)[C@@H]2O[P@](=O)(S)OC[C@H]2O[C@H]([C@H](F)[C@@H]2O1)n1cnc2c(ncnc21)NCC#CCNc1ncnc2c1ncn23` [Compound 29], in experiment [1] (setting [6]), the EC50 is 0.62 µM.

For `O=[P@@]1(S)OC[C@H]2O[C@@H]3[C@H](F)[C@@H]2O[P@](=O)(S)OC[C@H]2OC([C@H](F)[C@@H]2O1)n1cnc2c(ncnc21)CC/C=C/CCc1ncnc2c1ncn23` [Compound 34], the concentration for a half-maximal effect (EC50) in experiment [1] (setting [6]) stood at 2.3 µM.

As to `O=P1(S)OC[C@H]2O[C@@H]3[C@H](F)[C@@H]2OP(=O)(S)OC[C@H]2O[C@H]([C@H](F)[C@@H]2O1)n1cnc2c(ncnc21)NC/C=C/COc1ncnc2c1ncn23` (single isomer, unassigned) [Compound 19], the EC50 in experiment [1] (setting [6]) is 94.1 µM.

As to `O=[P@]1(S)OC[C@H]2OC3[C@H](F)[C@@H]2O[P@](=O)(S)OC[C@H]2O[C@H]([C@H](F)[C@@H]2O1)n1cnc2c(ncnc21)NCCCCNc1ncnc2c1ncn23` [Compound 6], the half-maximal effective concentration (EC50) in experiment [2] turned out to be 42 µM; in experiment [3] (Table 5) it was 5.7 µM; in experiment [1] (setting [8]) it was 10.5 µM; in experiment [4] (setting [10]) it was 9 µM.

For `Nc1nc2c3ncn(c3n1)[C@@H]1O[C@@H]3COP(O)(=S)O[C@H]4[C@@H](F)[C@@H](O[C@@H]4COP(O)(=S)O[C@H]3[C@H]1F)n1cnc3c(ncnc31)NC/C=C/CO2` (single isomer, unassigned) [Compound 22], the midpoint of the response in experiment [1] (hSTING EC50 (μM) HAQ), the EC50, lay at 41.2 µM.
